Assay results published in patent publication US7014856B1, “Ganglioside-KLH conjugate vaccines plus OS-21” (Sloan-Kettering Institute for Cancer Research, priority 1993, dated 2006).
Values joined by “and” are separate entries in the source; they are usually repeats but may differ in a detail not shown here. Equal values may be shown once. “Also recorded” adds a separate entry of the source.

Experiments:
patients = experiment: Toxicity in patients treated earlier with GM2 or GM2-KLH vaccines; format: in vivo, human
ganglioside GM2 = experiment: Peak antibody titer against ganglioside GM2 by ELISA (Table 2); format: in vivo, human; conditions: peak titer against GM2 after immunization
GM2 [1] = experiment: ELISA for GM2 antibodies in patients receiving GM2-KLH conjugate vaccines (third series); format: in vivo, human
Experimental: Four vaccinations were administered intradermally into extremities with intact lymphatic drainage at two-week intervals, followed by two additional vaccinations at eight week intervals. Cyclophosphamide (Cytoxan, Mead Johnson and Co., Evansville, Ind.) 200 mg/m2 was administered intravenously to all patients 4 to 6 days prior to the first vaccination.
(§1) ELISA was performed as previously described (6). To control for nonspecific “stickiness”, immune sera were also tested on plates which were processed identically but to which no ganglioside had been added, and the reading was subtracted from the value obtained in the presence of ganglioside. The titer was defined as the highest dilution yielding a corrected absorbance of 0.1 or greater. Immunostaining of gangliosides with monoclonal antibodies or human sera was performed after spotting on nitrocellulose strips (14) or separation on HPTLC silica gel glass plates as previously described (3). Plates were developed in chloroform/methanol/water (0.25% CaCl2) 50:40:10 (v/v), and gangliosides were visualized by staining with resorcinol/HCl reagent or monoclonal antibodies.

GM2 [2] = experiment: Dot blot immune stain for GM2 antibodies (third series); format: in vivo, human
Experimental: as §1

KLH [3] = experiment: ELISA for KLH antibodies (third series); format: in vivo, human
GM2 [4] = experiment: ELISA titer against GM2 (fourth series); format: in vivo, human
Experimental: (§2) Enzyme-linked Immunosorbent Assay (ELISA) were performed as previously described for gangliosides (5). […] The titer was defined as the highest dilution yielding a corrected absorbance of 0.1 or greater. Immunostaining of gangliosides with monoclonal antibodies or human sera was performed after spotting on nitrocellulose strips as previously described (22). […] Twenty-five micrograms of each were diluted in 0.05 ml PBS and administered intradermally. Results were interpreted as described previously (5).

GM2 [5] = experiment: Dot blot immune stain against GM2 (fourth series); format: in vivo, human; design: key: Reactions were graded 0, 1+, 2+ or 3+; Reactions were graded 0, 1+, 2+ or 3+; Reactions were graded 0, 1+, 2+ or 3+; Reactions were graded 0, 1+, 2+ or 3+
Experimental: as §2

KLH [6] = experiment: IgG ELISA titer against KLH (fourth series); format: in vivo, human; conditions: No adjuvant
Experimental: as §2

melanoma patients [7] = conditions: six patients per group
melanoma patients [8] = experiment: Delayed-type hypersensitivity skin tests with GM2, GM2-HSA and KLH; format: in vivo, human; conditions: 25 micrograms intradermally at the fifth vaccination; 24 and 48 hours
Experimental: as §2

T antigen-KLH = experiment: Preclinical adjuvant studies with KLH-conjugate vaccines such as T antigen-KLH; format: in vivo, mice
QS-21 = experiment: ELISA for antibodies to QS-21; format: in vivo, human; conditions: after immunizations
Experimental: as §2

melanoma patients [9] = conditions: outpatient setting, s.c. with GM2-KLH
Experimental: Melanoma patients with AJCC Stage III or IV disease were considered eligible if all evidence of metastatic disease had been rejected within the last 8 months. None of the patients had received prior chemotherapy or radiation therapy. Patients were evaluated for toxicity at the time of each vaccination. In addition, patients were instructed to measure local reactions and to take their temperature.
The GM2/KLH solar ratio was approximately 800/1 and was supplied at a concentration of 0.57 mg conjugate per 0.5 ml normal saline. This represented one patient dose and contained 70 ug GM2, 500 ug KLH and 0.5 ml normal saline. QS-21 adjuvant, containing a saponin component isolated from Quillaja saponaria Molina tree bark, was provided by Cambridge Biotech Corp. (Worcester, Mass.). The purity of the QS-21 was determined to be ≧98% by analytical reverse phase HPLC. […] The vaccine (final volume 0.75 ml) was vortexed for 2–3 minutes and administered within 15 min. Four vaccinations were administered subcutaneously at two week intervals followed by two more at eight week intervals. Initially 12 patients were treated, 3 at each of the 4 QS-21 doses. […] Cyclophosphamide (Cytoxan, Mead Johnson and Co., Evansville, Id.) 200 mg/M^2 was administered IV to all patients 3–6 days prior to the first vaccination.

[10] = test system: mouse, cat and Rhesus monkey; conditions: doses as high as 125 ug per mouse; cited from earlier work

Substance: 11^3NeuAc-GgOse3Cer-keyhole limpet hemocyanin (KLH) [GM2-KLH]
- toxicity attributed to the substance (patients): pain and tenderness at vaccines sites lasting 48 hours
- Antibody Titers by Elisa IgG (ganglioside GM2): 0
- Reciprocal GM2 antibody titers before immunization IgG (GM2 [1]; before immunization): 0
- median titers: reciprocal GM2 antibody titer after immunization (Peak) IgG (GM2 [1]; median, after immunization): 0
- median titers: reciprocal GM2 antibody titer after immunization (Peak) IgM (GM2 [1]; median, after immunization): 80
- median titers: reciprocal GM2 antibody titer before immunization IgG (GM2 [1]; median, before immunization): 0
- median titers: reciprocal GM2 antibody titer before immunization IgM (GM2 [1]; median, before immunization): 0
- patients with 3+ reactivity of IgM antibodies against GM2 (GM2 [2]): two of six
- median titers: reciprocal KLH antibody titer after immunization (Peak) IgG (KLH [3]): 120
- Reciprocal median IgM antibody titer against GM2 (GM2 [4]; GM2-KLH alone): 80
- median IgG antibody titer against GM2 (GM2 [4]; GM2-KLH alone): 0
- patients who produced IgM antibody (GM2 [4]; GM2-KLH alone): Five of 6
- patients who produced IgG antibody (of low titer) (GM2 [4]; GM2-KLH alone, 6 patients): 1
- PEAK ELISA TITER AGAINST GM2 Pretreatment IgG (GM2 [4]; No adjuvant): 0 (6)
- induction of IgM and IgG antibody titers, 7 μg GM2 dose versus 70 μg dose (GM2 [4]; patients with advanced disease, 100 μg QS-21): equally as effective
- median IgM dot blot reaction against GM2 (GM2 [5]; GM2-KLH alone): 2+
- PEAK DOT BLOT IMMUNE SYSTEM RESPONSE AGAINST GM2 IgG (GM2 [5]; No adjuvant): 0 and 1+
- PEAK DOT BLOT IMMUNE SYSTEM RESPONSE AGAINST GM2 IgM (GM2 [5]; No adjuvant): 2+ and 1+, and 0 and 3+,
- median IgG dot blot reaction against GM2 (GM2 [5]; no QS-21): 0
- IgG ELISA TITER AGAINST KLH Pretreatment (KLH [6]): 0 (6)
- local or systemic side effects (melanoma patients [7]): No local or systemic toxicity

Substance: II^3NeuAc-GgOse3Cer [GM2, reference compound]
- toxicity attributed to the substance (patients): No toxicity
- reaction at skin test sites (melanoma patients [8]): No erythema or induration

Substance: QS-21
- DTH (T antigen-KLH; mice): potent DTH
- IgG antibody titers (T antigen-KLH; most mice, KLH-conjugate vaccine with QS-21): over 1/4000
- antibodies against QS-21 (QS-21): No antibodies against QS-21 were detected; also recorded: no significant increase in antibody to QS-21
- probable MTD per vaccination (melanoma patients [9]): 200 µg
- toxicity [10]: no clear toxicity
